Results reported in ChEMBL document CHEMBL4837181 (Eur J Med Chem, 2020).
Where a SMILES comes first, the peptide text is derived from it. [ ]: non-standard residue; d: D form. dTrp(1-Me) = Cn1cc(C[C@@H](N)C(=O)O)c2ccccc21

How the values were obtained:
[1] = Chemical stability of compound in 0.1 N aqueous HCl buffer assessed as compound remaining at pH 1 at 5 uM measured after 1.5 hrs by LC-MS/MS analysis; type: physicochemical; settings: pH 1, 1.5 h
[2] = Stability in rat plasma assessed as parent compound remaining measured after 2 hrs by LC-MS/MS analysis; type: ADME, cell-free; settings: read-out: Stabilty
[3] = Chemical stability of compound in PBS buffer assessed as compound remaining at pH 7.4 at 5 uM measured after 24 hrs by LC-MS/MS analysis; type: physicochemical; settings: read-out: Stabilty
[4] = Chemical stability of compound in saline assessed as compound remaining at 5 uM measured after 24 hrs by LC-MS/MS analysis; type: physicochemical; settings: read-out: Stabilty
[5] = Stability in mouse plasma assessed as parent compound remaining measured after 2 hrs by LC-MS/MS analysis; type: ADME, cell-free; settings: read-out: Stabilty
[6] = Chemical stability of compound in simulated intestinal fluid assessed as compound remaining at 5 uM measured after 3 hrs by LC-MS/MS analysis; type: ADME, physicochemical; settings: read-out: Stabilty
[7] = Chemical stability of compound in simulated gastric fluid assessed as compound remaining at 5 uM measured after 24 hrs by LC-MS/MS analysis; type: ADME, physicochemical; settings: read-out: Stabilty
[8] = Chemical stability of compound in 0.1 N aqueous HCl buffer assessed as compound remaining at pH 1 at 5 uM measured after 24 hrs by LC-MS/MS analysis; type: physicochemical; settings: pH 1, 24 h
[9] = Dose normalized AUC (0 to infinity) in rat at 10 mg/kg, po measured upto 72 hrs by LC-MS/MS analysis; type: ADME, organism-based; settings: in vivo
[10] = Change in normalised AUCinfinity in rat at 10 mg/kg, po measured upto 72 hrs by LC-MS/MS analysis; type: ADME, organism-based; settings: in vivo
[11] = Chemical stability of compound in simulated intestinal fluid assessed as compound remaining at 5 uM measured after 24 hrs by LC-MS/MS analysis; type: ADME, physicochemical; settings: read-out: Stabilty
[12] = Stability in human plasma assessed as parent compound remaining measured after 24 hrs by LC-MS/MS analysis; type: ADME, cell-free; settings: read-out: Stabilty
[13] = Chemical stability of compound in PBS buffer assessed as compound remaining at pH 7.4 at 5 uM measured after 6 hrs by LC-MS/MS analysis; type: physicochemical; settings: read-out: Stabilty
[14] = Dose normalized Cmax in rat at 10 mg/kg, po measured upto 72 hrs by LC-MS/MS analysis; type: ADME, organism-based; settings: in vivo
[15] = Change in normalised Cmax in rat at 10 mg/kg, po measured upto 72 hrs by LC-MS/MS analysis; type: ADME, organism-based; settings: in vivo
[16] = Stability in human plasma assessed as parent compound remaining measured after 6 hrs by LC-MS/MS analysis; type: ADME, cell-free; settings: read-out: Stabilty
[17] = Chemical stability of compound in simulated gastric fluid assessed as compound remaining at 5 uM measured after 1.5 hrs by LC-MS/MS analysis; type: ADME, physicochemical; settings: read-out: Stabilty
[18] = Change in Cmax in rat at 37 umol/kg, po measured upto 72 hrs by LC-MS/MS analysis; type: ADME, organism-based; settings: in vivo, at 37 µmol/kg
[19] = Change in AUC (infinity) in rat at 37 umol/kg, po measured upto 72 hrs by LC-MS/MS analysis; type: ADME, organism-based; settings: in vivo, at 37 µmol/kg

| Compound | Stabilty [1] | remaining at 2 h [2] | remaining at 24 h, 5 µM [3] | remaining at 24 h, 5 µM [4] | remaining at 2 h [5] | remaining at 3 h, 5 µM [6] | remaining at 24 h, 5 µM [7] | Stabilty [8] | AUC/dose [9] | Activity [10] | remaining at 24 h, 5 µM [11] | remaining at 24 h [12] | remaining at 6 h, 5 µM [13] | Cmax/dose [14] | Activity [15] | remaining at 6 h [16] | remaining at 1.5 h, 5 µM [17] | Activity [18] | Activity [19] |
| --- | --- | --- | --- | --- | --- | --- | --- | --- | --- | --- | --- | --- | --- | --- | --- | --- | --- | --- | --- |
| CCOC(=O)[C@@H](Cc1cn(C)c2ccccc12)NC(=O)[C@@H](N)[C@@H](C)CC.Cl | 95% | 0% | 63% | 97% | 0% | 91% | 97% | 97% | 606 µM·h | 19% | 38% | 16% | 97% | 12.8 µM | -26% | 75% | 98% | – | – |
| Cl.Cn1cc(C[C@@H](N)C(=O)OCCC2CCNCC2)c2ccccc21 | 74% | 0% | 22% | 46% | 0% | 62% | 90% | 46% | 110 µM·h | -78% | 8% | 4% | 91% | 2.4 µM | -86% | 27% | 90% | – | – |
| Cl.Cn1cc(C[C@@H](NC(=O)[C@@H](N)CCC(N)=O)C(=O)O)c2ccccc21 | 65% | 100% | 74% | 78% | 49% | 53% | 83% | 78% | 372 µM·h | -27% | 0% | 83% | 100% | 8.5 µM | -51% | 93% | 83% | – | – |
| CCOC(=O)[C@@H](Cc1cn(C)c2ccccc12)NC(=O)[C@@H](N)CCC(N)=O.O=P(O)(O)O | – | – | – | – | – | – | – | – | – | – | – | – | – | – | – | – | – | -32% | -28% |
| Cn1cc(C[C@@H](NC(=O)[C@@H](N)CCCCN)C(=O)O)c2ccccc21.O=S(=O)(O)O | – | – | – | – | – | – | – | – | – | – | – | – | – | – | – | – | – | -4% | 10% |
| CCOC(=O)[C@@H](Cc1cn(C)c2ccccc12)NC(=O)[C@@H](N)CCC(N)=O.O=S(=O)(O)O | – | – | – | – | – | – | – | – | – | – | – | – | – | – | – | – | – | 20% | -20% |
| CC(C)C[C@H](N)C(=O)N[C@H](Cc1cn(C)c2ccccc12)C(=O)O.Cl | 92% | 100% | 95% | 99% | 88% | 66% | 97% | 99% | 617 µM·h | 21% | 0% | 82% | 95% | 24.4 µM | 41% | 87% | 95% | – | – |
| CCOC(=O)[C@@H](Cc1cn(C)c2ccccc12)NC(=O)[C@@H](N)CC(C)C.O=S(=O)(O)c1ccccc1 | – | – | – | – | – | – | – | – | – | – | – | – | – | – | – | – | – | 29% | 45% |
| CCOC(=O)[C@@H](Cc1cn(C)c2ccccc12)NC(=O)[C@@H](N)CCC(N)=O | – | – | – | – | – | – | – | – | – | – | – | – | – | – | – | – | – | 5% | -16% |
| Cl.Cn1cc(C[C@@H](N)C(=O)N[C@H](Cc2cn(C)c3ccccc23)C(=O)O)c2ccccc21 | 45% | 80% | 34% | 91% | 65% | 81% | 49% | 91% | 262 µM·h | -48% | 77% | 82% | 100% | 3 µM | -83% | 92% | 63% | – | – |
| Cl.Cn1cc(C[C@@H](NC(=O)[C@@H](N)CCC(=O)O)C(=O)O)c2ccccc21 | 99% | 100% | 60% | 91% | 100% | 88% | 88% | 91% | 574 µM·h | 13% | 85% | 86% | 81% | 17.6 µM | 2% | 90% | 90% | – | – |
| Cl.Cn1cc(C[C@@H](N)C(=O)OCCC2CCOCC2)c2ccccc21 | 52% | 0% | 0% | 76% | 0% | 67% | 60% | 76% | 774 µM·h | 52% | 0% | 54% | 85% | 15 µM | -14% | 85% | 85% | – | – |
| CCOC(=O)[C@@H](Cc1cn(C)c2ccccc12)NC(=O)[C@@H](N)CC(C)C.CS(=O)(=O)O | – | – | – | – | – | – | – | – | – | – | – | – | – | – | – | – | – | 111% | 127% |
| Cn1cc(C[C@@H](NC(=O)CN)C(=O)O)c2ccccc21.O=P(O)(O)O (H-Gly-[dTrp(1-Me)]-OH) | – | – | – | – | – | – | – | – | – | – | – | – | – | – | – | – | – | -3% | 3% |
| CCOC(=O)[C@@H](Cc1cn(C)c2ccccc12)NC(=O)[C@@H](N)CC(C)C.O=S(=O)(O)O | – | – | – | – | – | – | – | – | – | – | – | – | – | – | – | – | – | -23% | -5% |
| Cn1cc(C[C@@H](NC(=O)[C@@H](N)CCCCN)C(=O)O)c2ccccc21 | – | – | – | – | – | – | – | – | – | – | – | – | – | – | – | – | – | -17% | -13% |
| CS(=O)(=O)O.Cn1cc(C[C@@H](N)C(=O)OCC(O)CO)c2ccccc21 (some centres not stated) | – | – | – | – | – | – | – | – | – | – | – | – | – | – | – | – | – | -27% | -27% |
| Cn1cc(C[C@@H](N)C(=O)OCC2CCNCC2)c2ccccc21.O=P(O)(O)O | – | – | – | – | – | – | – | – | – | – | – | – | – | – | – | – | – | -79% | -64% |
| Cn1cc(C[C@@H](N)C(=O)OCC(O)CO)c2ccccc21.O=S(=O)(O)O (some centres not stated) | – | – | – | – | – | – | – | – | – | – | – | – | – | – | – | – | – | 2% | 21% |
| Cn1cc(C[C@@H](NC(=O)[C@@H](N)CCCCN)C(=O)O)c2ccccc21.O=P(O)(O)O | – | – | – | – | – | – | – | – | – | – | – | – | – | – | – | – | – | 4% | -17% |
| CCOC(=O)[C@@H](Cc1cn(C)c2ccccc12)NC(=O)[C@@H](N)CCC(N)=O.CS(=O)(=O)O | – | – | – | – | – | – | – | – | – | – | – | – | – | – | – | – | – | 4% | -12% |
